From US6897209B2, “Labelled factor XIIIa substrates” (GE Healthcare Limited, priority 1997, dated 2005)
Blank lines part the entries; values can stand above or below the compound they belong to.

Tests used:
Factor XIIIa = molecular target: T1, Factor XIIIa (Homo sapiens, UniProt P00488); test: Factor XIIIa dependency of incorporation (dimethylcasein uptake, normal vs Factor XIII deficient plasma); assay type: biochemical; details: 1 KBq/ml, 60 minutes; uptake in normal plasma minus Factor XIII deficient plasma
T1 construct: Factor XIII is transformed into its active form Factor XIIIa by thrombin in the presence of calcium ions; from tissue; host or cells: human plasma
T1 sequence (P00488 39-732 limits assumed): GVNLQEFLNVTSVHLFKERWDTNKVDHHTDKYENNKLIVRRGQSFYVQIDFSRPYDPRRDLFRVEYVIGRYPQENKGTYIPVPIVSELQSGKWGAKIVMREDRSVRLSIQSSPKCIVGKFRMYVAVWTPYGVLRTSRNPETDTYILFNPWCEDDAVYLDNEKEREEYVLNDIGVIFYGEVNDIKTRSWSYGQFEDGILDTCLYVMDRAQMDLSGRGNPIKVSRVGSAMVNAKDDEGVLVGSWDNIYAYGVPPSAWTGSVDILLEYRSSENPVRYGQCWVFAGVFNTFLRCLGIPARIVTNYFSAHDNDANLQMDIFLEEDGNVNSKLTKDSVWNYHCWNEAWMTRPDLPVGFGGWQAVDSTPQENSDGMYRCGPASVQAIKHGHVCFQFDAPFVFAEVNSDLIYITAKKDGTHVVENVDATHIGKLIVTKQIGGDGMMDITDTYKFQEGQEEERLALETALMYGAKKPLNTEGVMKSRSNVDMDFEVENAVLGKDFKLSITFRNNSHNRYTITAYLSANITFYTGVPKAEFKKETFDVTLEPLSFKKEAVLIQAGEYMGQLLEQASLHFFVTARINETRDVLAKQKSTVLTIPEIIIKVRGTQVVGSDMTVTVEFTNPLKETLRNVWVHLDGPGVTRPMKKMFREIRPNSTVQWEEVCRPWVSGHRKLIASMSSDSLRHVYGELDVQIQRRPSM
Procedure: The assay was changed by replacing the mercaptoethanol with aprotinin at a final concentration of 2 μg/ml, and dimethylcasein (DMC) was used instead of casein.

[1] = tested on: clots induced in rat inferior vena cava; test: Incorporation into clots induced in a rat model (rat inferior vena cava model); assay type: in vivo; details: rat IVC model; for Clot/Blood / Clot/Heart / Clot/Liver / Clot/Lung: 60 min; for % ID/g (clot uptake) / Relative conc (cpm/g of clot by dose/g animal): compound injected 5 min post-induction, clot removed after 60 min
Procedure: The rats (Male Wistar, 250-350 g) were anaesthetised with 15% urethane. After laparotomy, the vena cava was isolated and freed of surrounding fat tissue. […] The average weight of the clots formed in this model was around 27 mg, n=32, (5-50 mg range). The so compounds were injected 5 min post-induction. After 60 min the animals were sacrificed and the clot removed, weighed and counted. Other tissues e.g. blood, lung, heart, were also dissected and counted. The uptake of tracer into the clot was determined as the relative concentration (cpm/g of clot by dose/g animal ) and clot to background tissue.

human plasma clots [2] = molecular target: T2, human plasma clots (Homo sapiens, UniProt P00488); test: Incorporation into human plasma clots (in vitro plasma clot assay); assay type: biochemical; details: for % specific uptake*: % retained with thrombin − % retained no thrombin; for % retained in plasma clot assay (with thrombin): human plasma with thrombin and calcium chloride, 60 minutes, ca. 20° C.
T2 construct: Factor XIII is transformed into its active form Factor XIIIa by thrombin in the presence of calcium ions; from tissue; host or cells: human plasma, clotted in vitro with thrombin and calcium chloride
T2 sequence (P00488 39-732): T1 sequence (P00488 39-732 limits assumed)
Procedure: (§1) Incorporation of radiolabelled substrates into fibrin was investigated by induction of an in vitro human plasma clot in the following manner. To a siliconised 5 ml glass vial was added, (a) 800 μl of Tris(hydroxymethyl)aminomethane buffered saline pH 7.5 containing calcium chloride (50 mM Tris, 150 mM sodium chloride, 4 mM calcium chloride.), (b) 40 μl of physiological salt solution containing 100 units of thrombin per ml, (c) 400 μl of human plasma containing the radiolabelled substrate at a concentration of typically 10 kBq/ml. To aid induction of clot a roughened glass rod was added to the reaction vial. Control vials were prepared similarly but with the omission of thrombin and calcium chloride.
(§2) The proportion of total radioactivity was calculated by counting in suitable detection apparatus.
(§3) The fraction of radioactivity retained on the filter, after subtraction of the non-specific binding determined from the control, is a measure of incorporation into the filtered clots.

human plasma clots [3] = test: as above; assay type: biochemical; details: control vials without thrombin and calcium chloride, 60 minutes
Procedure: as §1, §2, §3

[4] = Normal rat biodistribution; assay type: in vivo; details: i.v., male Wistar rats, Mean±SD n=3
Procedure: The resolution of a clot image is dependant on the combination of rate of incorporation of the radiopharmaceutical and its blood/tissues clearance rate. For this reason the biodistribution of several compounds has been determined in rats. Male Wistar (100-150 g) rats were injected i.v. with 0.1-0.2 ml of radiolabelled tracer solution (8 MBq/ml) and dissected at different times post-injection. The % ID in each of the selected tissues was measured. Some animals were kept in metabolism cages to be able to determine the % ID excreted in urine and faeces. The dissection times used for the majority of the agents was 2, 15, 30, 60, 240 min. Data are shown as % ID, Mean±SD, (n=3).

% specific DMC casein uptake (Factor XIIIa): 22.5%
% specific uptake* (human plasma clots [2]): 14.7%
% retained in plasma clot assay (with thrombin) (human plasma clots [2]): 17%
% ID Blood ([4]; 2 min post-injection): 18.5 ± 1.06 % ID
% ID GI Tract ([4]; 2 min post-injection): 6.31 ± 0.6 % ID
% ID Heart ([4]; 2 min post-injection): 0.34 + 0.17 % ID
% ID Kidney ([4]; 2 min post-injection): 12.3 ± 0.53 % ID
% ID Liver ([4]; 2 min post-injection): 4.3 ± 0.06 % ID
% ID Lung ([4]; 2 min post-injection): 1.69 ± 0.1 % ID
% ID Muscle ([4]; 2 min post-injection): 25.9 ± 1.8 % ID
% ID Spleen ([4]; 2 min post-injection): 0.33 ± 0.07 % ID
% ID Urine ([4]; 2 min post-injection): 1.38 ± 1.34 % ID
% ID Blood ([4]; 15 min post-injection): 9.46 ± 0.24 % ID
% ID GI Tract ([4]; 15 min post-injection): 9.6 ± 0.9 % ID
% ID Heart ([4]; 15 min post-injection): 0.27 + 0.06 % ID
% ID Kidney ([4]; 15 min post-injection): 7.32 ± 0.76 % ID
% ID Liver ([4]; 15 min post-injection): 4.25 ± 0.85 % ID
% ID Lung ([4]; 15 min post-injection): 0.9 ± 0.16 % ID
% ID Muscle ([4]; 15 min post-injection): 15.6 ± 1.05 % ID
% ID Spleen ([4]; 15 min post-injection): 0.17 ± 0.04 % ID
% ID Urine ([4]; 15 min post-injection): 30.1 ± 1.28 % ID
% ID Blood ([4]; 30 min post-injection): 5.7 ± 0.42 % ID
% ID GI Tract ([4]; 30 min post-injection): 13.07 ± 1.4 % ID
% ID Heart ([4]; 30 min post-injection): 0.17 + 0.04 % ID
% ID Kidney ([4]; 30 min post-injection): 7.1 ± 1.89 % ID
% ID Liver ([4]; 30 min post-injection): 2.94 ± 0.22 % ID
% ID Lung ([4]; 30 min post-injection): 0.54 ± 0.07 % ID
% ID Muscle ([4]; 30 min post-injection): 8.51 ± 0.93 % ID
% ID Spleen ([4]; 30 min post-injection): 0.11 ± 0.03 % ID
% ID Urine ([4]; 30 min post-injection): 46.9 ± 3.71 % ID
% ID Blood ([4]; 60 min post-injection): 2.23 ± 0.15 % ID
% ID GI Tract ([4]; 60 min post-injection): 17.7 ± 3.8 % ID
% ID Heart ([4]; 60 min post-injection): 0.07 + 0.02 % ID
% ID Kidney ([4]; 60 min post-injection): 3.77 ± 0.73 % ID
% ID Liver ([4]; 60 min post-injection): 1.79 ± 0.45 % ID
% ID Lung ([4]; 60 min post-injection): 0.28 ± 0.02 % ID
% ID Muscle ([4]; 60 min post-injection): 4.31 ± 0.95 % ID
% ID Spleen ([4]; 60 min post-injection): 0.07 ± 0.02 % ID
% ID Urine ([4]; 60 min post-injection): 65.8 ± 3.4 % ID
% ID Blood ([4]; 240 min post-injection): 0.09 ± 0.02 % ID
% ID GI Tract ([4]; 240 min post-injection): 25.4 ± 5.2 % ID
% ID Heart ([4]; 240 min post-injection): 0.01 % ID
% ID Kidney ([4]; 240 min post-injection): 5.1 ± 0.99 % ID
% ID Liver ([4]; 240 min post-injection): 1 + 0.17 % ID
% ID Lung ([4]; 240 min post-injection): 0.1 ± 0.01 % ID
% ID Muscle ([4]; 240 min post-injection): 0.81 ± 0.26 % ID
% ID Spleen ([4]; 240 min post-injection): 0.03 ± 0.02 % ID
% ID Urine ([4]; 240 min post-injection): 66.08 ± 4.98 % ID
SMILES: CC(=NO)C(C)(C)NCCN(CCNC(=O)C1CCC(CNC(=O)c2ccc(S(=O)(=O)NCCCCCN)cc2)CC1)CCNC(C)(C)C(C)=NO (stereo not drawn) [Compound 17]
Clot/Blood [1]: 1.15
Clot/Heart [1]: 2.7
Clot/Liver [1]: 1.26
Clot/Lung [1]: 1.54
% ID/g (clot uptake) [1]: 0.32 ± 0.04 % ID/g
Relative conc (cpm/g of clot by dose/g animal) [1]: 1.1 ± 0.17
% retained in plasma clot assay (no thrombin) (human plasma clots [3]): 2.3%

SMILES: NCCCCCNS(=O)(=O)c1ccc(C(=O)NCCCNC(=O)c2ccc(NN)nc2)cc1 [Compound 24, N-[6-hydrazinopyridine-3-carbonyl]-N′-(4-N-(5-aminopentyl)amidosulphonyl)benzoyl propane-1,3-diamine]
% specific DMC casein uptake (Factor XIIIa): 22.5%
Clot/Blood [1]: 1.8
Clot/Heart [1]: 3.9
Clot/Liver [1]: 0.93
Clot/Lung [1]: 2.5
% ID/g (clot uptake) [1]: 0.21 ± 0.02 % ID/g
Relative conc (cpm/g of clot by dose/g animal) [1]: 0.62 ± 0.1
% specific uptake* (human plasma clots [2]): 13.8%
% retained in plasma clot assay (with thrombin) (human plasma clots [2]): 14%
% retained in plasma clot assay (no thrombin) (human plasma clots [3]): 0.2%
% ID Blood ([4]; 2 min post-injection): 18.2 ± 1.39 % ID
% ID GI Tract ([4]; 2 min post-injection): 7.48 ± 0.45 % ID
% ID Heart ([4]; 2 min post-injection): 0.73 + 0.1 % ID
% ID Kidney ([4]; 2 min post-injection): 10.2 ± 3.07 % ID
% ID Liver ([4]; 2 min post-injection): 5.38 ± 0.75 % ID
% ID Lung ([4]; 2 min post-injection): 1.99 ± 0.12 % ID
% ID Muscle ([4]; 2 min post-injection): 28.5 ± 0.25 % ID
% ID Urine ([4]; 2 min post-injection): 0.11 ± 0.1 % ID
% ID Blood ([4]; 15 min post-injection): 7.11 ± 1.29 % ID
% ID GI Tract ([4]; 15 min post-injection): 23.3 ± 6.5 % ID
% ID Heart ([4]; 15 min post-injection): 0.3 + 0.08 % ID
% ID Kidney ([4]; 15 min post-injection): 4.11 ± 1.31 % ID
% ID Liver ([4]; 15 min post-injection): 6.7 ± 1.21 % ID
% ID Lung ([4]; 15 min post-injection): 0.78 ± 0.16 % ID
% ID Muscle ([4]; 15 min post-injection): 17.9 ± 4.38 % ID
% ID Urine ([4]; 15 min post-injection): 8.64 ± 5.6 % ID
% ID Blood ([4]; 30 min post-injection): 3.86 ± 0.62 % ID
% ID GI Tract ([4]; 30 min post-injection): 31.5 ± 11.9 % ID
% ID Heart ([4]; 30 min post-injection): 0.13 + 0.03 % ID
% ID Kidney ([4]; 30 min post-injection): 2.52 ± 1.1 % ID
% ID Liver ([4]; 30 min post-injection): 3.67 ± 0.62 % ID
% ID Lung ([4]; 30 min post-injection): 0.39 ± 0.06 % ID
% ID Muscle ([4]; 30 min post-injection): 10.2 ± 1.09 % ID
% ID Urine ([4]; 30 min post-injection): 31.0 ± 9.41 % ID
% ID Blood ([4]; 60 min post-injection): 1.6 ± 0.57 % ID
% ID GI Tract ([4]; 60 min post-injection): 38.8 ± 9.6 % ID
% ID Heart ([4]; 60 min post-injection): 0.06 + 0.03 % ID
% ID Kidney ([4]; 60 min post-injection): 1.4 ± 0.38 % ID
% ID Liver ([4]; 60 min post-injection): 1.6 ± 0.29 % ID
% ID Lung ([4]; 60 min post-injection): 0.18 ± 0.06 % ID
% ID Muscle ([4]; 60 min post-injection): 3.62 ± 0.9 % ID
% ID Urine ([4]; 60 min post-injection): 44.9 ± 7.32 % ID
% ID Blood ([4]; 240 min post-injection): 0.29 ± 0.06 % ID
% ID GI Tract ([4]; 240 min post-injection): 46.3 ± 4.4 % ID
% ID Heart ([4]; 240 min post-injection): 0.02 + 0.01 % ID
% ID Kidney ([4]; 240 min post-injection): 0.92 ± 0.37 % ID
% ID Liver ([4]; 240 min post-injection): 0.3 ± 0.03 % ID
% ID Lung ([4]; 240 min post-injection): 0.05 ± 0.02 % ID
% ID Muscle ([4]; 240 min post-injection): 1.1 ± 0.32 % ID
% ID Urine ([4]; 240 min post-injection): 49.51 ± 4.62 % ID
